In US8178535B2, “Substituted sulfonamide compounds having bradykinin 1 receptor activity and use thereof as medicaments” (Gruenenthal GmbH, priority 2008, dated 2012):

How the values were obtained:
[1] = target: T1, human B1R receptor (hB1R) (Homo sapiens, UniProt P46663); assay: FLIPR Ca2+ assay (Fluo-4) on CHO K1 cells stably transfected with the human B1R gene; assay type: cell-based; conditions: CHO-K1; test substance 10 μM; agonist Lys-Des-Arg9-bradykinin 0.5 nM; % inhibition compared to the maximum achievable inhibition
T1 construct: host or cells: CHO K1 cells
T1 sequence (P46663 1-353): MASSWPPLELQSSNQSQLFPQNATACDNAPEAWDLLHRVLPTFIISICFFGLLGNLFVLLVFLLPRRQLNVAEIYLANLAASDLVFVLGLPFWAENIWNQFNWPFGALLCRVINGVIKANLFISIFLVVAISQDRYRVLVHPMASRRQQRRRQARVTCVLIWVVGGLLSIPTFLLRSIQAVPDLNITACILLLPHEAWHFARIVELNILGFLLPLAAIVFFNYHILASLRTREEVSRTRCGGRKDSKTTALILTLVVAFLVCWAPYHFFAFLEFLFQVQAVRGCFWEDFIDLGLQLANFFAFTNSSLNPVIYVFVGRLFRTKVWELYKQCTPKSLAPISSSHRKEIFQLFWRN
Experimental: (§1) The agonistic or antagonistic action of compounds can be quantified on the bradykinin 1 receptor (B1R) of humans and rats with ectopically expressing cell lines (CHO K1 cells) and with the aid of a Ca^2+-sensitive dye (Fluo-4) in the fluorescent imaging plate reader (FLIPR). The figure in percent activation refers to the Ca^2+ signal after addition of Lys-Des-Arg^9-bradykinin (0.5 nM) and Des-Arg^9-bradykinin (100 nM). Antagonists result in a suppression of the Ca^2+ inflow after the addition of the agonist. Percent inhibition values are given in comparison to the maximum achievable inhibition. The compounds according to the invention act, for example, on the B1R which is implicated in various disease states. This means that the compounds of the invention are useful as pharmaceutically active substances in medicaments for the treatment and/or inhibition of such disease states.
(§2) The agonistic or antagonistic action of substances can be determined on the bradykinin 1 receptor (B1R) of humans and rats by means of the following assay. According to this assay the Ca^2+ inflow through the channel is quantified by means of a Ca^2+-sensitive dye (Fluo-4 type, Molecular Probes Europe BV, Leiden, Netherlands), in a Fluorescent Imaging Plate Reader (FLIPR, Molecular Devices, Sunnyvale, USA).
(§3) Chinese hamster ovary cells (CHO K1 cells) are used, which are stably transfected with the human B1R gene (hB1R cells, Euroscreen s.a., Gosselies, Belgium), or with the B1R gene of rats (rB1R cells, Axxam, Milan, Italy). For functional investigations these cells are plated out on black 96-well plates with a clear floor (BD Biosciences, Heidelberg, Germany) in a density of 20,000/25,000 cells/well. The cells are incubated overnight with 10 vol. % FBS (foetal bovine serum, Gibco Invitrogen GmbH, Karlsruhe, Germany) at 37° C. and 5% CO2 in a culture medium (hB1R cells: Nutrient Mixture Ham's F12, Gibco Invitrogen GmbH, Karlsruhe, Germany; rB1R cells: D-MEM/F12, Gibco Invitrogen GmbH, Karlsruhe, Germany). The following day the cells are charged for 60 minutes at 37° C. with 2.13 μM Fluo-4 (Molecular Probes Europe BV, Leiden, Netherlands) in HBSS buffer (Hank's buffered saline solution, Gibco Invitrogen GmbH, Karlsruhe, Germany) together with […] (Sigma-Aldrich, Taufkirchen, Germany) and 10 mM HEPES (Sigma-Aldrich, Taufkirchen, Germany).
(§4) The plates are then washed twice with HBSS buffer and HBSS buffer is added which additionally contains 0.1% BSA (bovine serum albumin; Sigma-Aldrich, Taufkirchen, Germany), 5.6 mM glucose and 0.05% gelatin (Merck KGaA, Darmstadt, Germany). After further incubation for 20 minutes at room temperature the plates are used for the Ca^2+ measurement in the FLIPR. The Ca^2+-dependent fluorescence is measured both before and after the addition of substances (λex=488 nm, λem=540 nm). The quantification is carried out by measuring the highest fluorescence intensity (FC, fluorescence counts) over time.
(§5) The FLIPR protocol consists of two substance additions. First, test substances (10 μM) are pipetted onto the cells and the Ca^2+ inflow is compared with the control (hB1R: Lys-Des-Arg9-bradykinin 0.5 nM; rB1R: Des-Arg9-bradykinin 100 nM). This gives the result in percent activation referred to the Ca^2+ signal after addition of Lys-Des-Arg9-bradykinin (0.5 nM), bzw. Des-Arg9-bradykinin (100 nM). After 10 minutes' incubation 0.5 nM Lys-Des-Arg9-bradykinin (hB1R) and 100 nM Des-Arg^9-bradykinin (rB1R) are applied and the inflow of Ca^2+ is likewise determined. Antagonists lead to a suppression of the Ca^2+ inflow. The percent inhibition compared to the maximum achievable inhibition is calculated. The compounds show a good activity on both human and rat receptors.
(§6) The agonistic and antagonistic action of the compounds according to the invention on the bradykinin 1 receptor (B1R) of humans and rats were determined as described above. Antagonists lead to a suppression of the Ca^2+ inflow. […]

[2] = target: T2, B1R receptor of rats (rB1R) (Rattus norvegicus, UniProt P97583); assay: FLIPR Ca2+ assay (Fluo-4) on CHO K1 cells stably transfected with the B1R gene of rats; assay type: cell-based; conditions: CHO-K1; test substance 10 μM; agonist Des-Arg9-bradykinin 100 nM; % inhibition compared to the maximum achievable inhibition
T2 construct: host or cells: CHO K1 cells
T2 sequence (P97583 1-337): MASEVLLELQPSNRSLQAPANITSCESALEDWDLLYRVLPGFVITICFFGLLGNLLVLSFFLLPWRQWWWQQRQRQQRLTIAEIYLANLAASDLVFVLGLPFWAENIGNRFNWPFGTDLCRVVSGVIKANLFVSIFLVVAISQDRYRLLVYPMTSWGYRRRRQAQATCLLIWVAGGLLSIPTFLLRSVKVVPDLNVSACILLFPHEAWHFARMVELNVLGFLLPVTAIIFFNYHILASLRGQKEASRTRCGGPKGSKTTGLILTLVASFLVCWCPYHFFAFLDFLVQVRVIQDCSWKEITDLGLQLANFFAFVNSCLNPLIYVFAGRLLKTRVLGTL
Experimental: as §1, §2, §3, §4, §5, §6

| Compound | inhibition at 10 µM [1] [%] | inhibition at 10 µM [2] [%] |
| --- | --- | --- |
| CN1CCN(CCCc2ccc3n2CCN(C(=O)COCC2CCc4ccccc4N2S(=O)(=O)c2ccc(Cl)c(Cl)c2)C3)CC1 (centres unmarked) [(16), 2-((1-(3,4-dichlorophenylsulfonyl)-1,2,3,4-tetrahydroquinolin-2-yl)methoxy)-1-(6-(3-(4-methylpiperazin-1-yl)propyl)-3,4-dihydropyrrolo[1,2-a]pyrazin-2(1H)-yl)ethanone] | 48 | 92 |
| O=C(CC1CCCCN1S(=O)(=O)c1cccc(C(F)(F)F)c1)N1CCn2c(CCCN3CCCC3)ccc2C1 (centres unmarked) [(17), 1-(6-(3-(pyrrolidin-1-yl)propyl)-3,4-dihydropyrrolo[1,2-a]pyrazin-2(1H)-yl)-2-(1-(3-(trifluoromethyl)phenylsulfonyl)piperidin-2-yl)ethanone] | 50 | 75 |
| Cc1cc(S(=O)(=O)N2CCCCC2CCC(=O)N2CCn3c(CCCN4CCCC4)ccc3C2)c(C)cc1Cl (centres unmarked) [(18), 3-(1-(4-chloro-2,5-dimethylphenylsulfonyl)piperidin-2-yl)-1-(6-(3-(pyrrolidin-1-yl)propyl)-3,4-dihydropyrrolo[1,2-a]pyrazin-2(1H)-yl)propan-1-one] | 90 | 99 |
| COc1cc(C)c(S(=O)(=O)N2CCCCC2COCC(=O)N2CCn3cccc3C2C(C)(C)C)c(C)c1 (centres unmarked) [(19), 1-(1-tert-butyl-3,4-dihydropyrrolo[1,2-a]pyrazin-2(1H)-yl)-2-((1-(4-methoxy-2,6-dimethyl-phenylsulfonyl)piperidin-2-yl)methoxy)ethanone] | 102 | 96 |
| COc1cc(C)c(S(=O)(=O)N2CCCCC2COCC(=O)N2CCn3cccc3C2C)c(C)c1 (centres unmarked) [(20), 2-((1-(4-methoxy-2,6-dimethylphenylsulfonyl)piperidin-2-yl)methoxy)-1-(1-methyl-3,4-dihydropyrrolo[1,2-a]pyrazin-2(1H)-yl)ethanone] | 101 | 99 |
| COc1cc(C)c(S(=O)(=O)N2CCCCC2COCC(=O)N2CCn3cccc3C2c2cccnc2)c(C)c1 (centres unmarked) [(21), 2-((1-(4-methoxy-2,6-dimethylphenylsulfonyl)piperidin-2-yl)methoxy)-1-(1-(pyridin-3-yl)-3,4-dihydropyrrolo[1,2-a]pyrazin-2(1H)-yl)ethanone] | 100 | 98 |
| COc1cc(C)c(S(=O)(=O)N2CCCCC2COCC(=O)N2CCn3ccnc3C2)c(C)c1 (centres unmarked) [(23), 1-(5,6-dihydroimidazo[1,2-a]pyrazin-7(8H)-yl)-2-((1-(4-methoxy-2,6-dimethyl-phenylsulfonyl)piperidin-2-yl)methoxy)ethanone] | 70 | 99 |
| COc1cc(C)c(S(=O)(=O)N2CCCCC2COCC(=O)N2CCn3cccc3C2c2cccs2)c(C)c1 (centres unmarked) [(29), 2-((1-(4-methoxy-2,6-dimethylphenylsulfonyl)piperidin-2-yl)methoxy)-1-(1-(thiophen-2-yl)-3,4-dihydropyrrolo[1,2-a]pyrazin-2(1H)-yl)ethanone] | 102 | 98 |

Second part, the molecule after the results:

| inhibition at 10 µM [1] [%] | inhibition at 10 µM [2] [%] | Compound |
| --- | --- | --- |
| 102 | 99 | COc1cc(C)c(S(=O)(=O)N2CCCCC2COCC(=O)N2CCn3cccc3C2c2ccc(Cl)nc2)c(C)c1 (centres unmarked) [(22), 1-(1-(6-chloropyridin-3-yl)-3,4-dihydropyrrolo[1,2-a]pyrazin-2(1H)-yl)-2-((1-(4-methoxy-2,6-dimethylphenylsulfonyl)piperidin-2-yl)methoxy)ethanone] |
| 101 | 98 | COc1ccc(C2c3cccn3CCN2C(=O)COCC2CCCCN2S(=O)(=O)c2c(C)cc(OC)cc2C)cc1 (centres unmarked) [(24), 2-((1-(4-methoxy-2,6-dimethylphenylsulfonyl)piperidin-2-yl)methoxy)-1-(1-(4-methoxyphenyl)-3,4-dihydropyrrolo[1,2-a]pyrazin-2(1H)-yl)ethanone] |
| 99 | 97 | COc1cc(C)c(S(=O)(=O)N2CCCCC2COCC(=O)N2CCn3cccc3C2c2ccccc2)c(C)c1 (centres unmarked) [(25), 2-((1-(4-methoxy-2,6-dimethylphenylsulfonyl)piperidin-2-yl)methoxy)-1-(1-phenyl-3,4-dihydropyrrolo[1,2-a]pyrazin-2(1H)-yl)ethanone] |
| 86 | 98 | COc1cc(C)c(S(=O)(=O)N2CCCCC2COCC(=O)N2CCn3cccc3C2c2ccc(F)c(F)c2)c(C)c1 (centres unmarked) [(26), 1-(1-(3,4-difluorophenyl)-3,4-dihydropyrrolo[1,2-a]pyrazin-2(1H)-yl)-2-((1-(4-methoxy-2,6-dimethylphenylsulfonyl)piperidin-2-yl)methoxy)ethanone] |
| 66 | 97 | COc1cc(C)c(S(=O)(=O)N2CCCCC2COCC(=O)N2CCn3cccc3C2c2ccc(C)c(C)c2)c(C)c1 (centres unmarked) [(27), 1-(1-(3,4-dimethylphenyl)-3,4-dihydropyrrolo[1,2-a]pyrazin-2(1H)-yl)-2-((1-(4-methoxy-2,6-dimethylphenylsulfonyl)piperidin-2-yl)methoxy)ethanone] |
| 98 | 98 | COc1cc(C)c(S(=O)(=O)N2CCCCC2COCC(=O)N2CCn3cccc3C2c2cccc(F)c2)c(C)c1 (centres unmarked) [(28), 1-(1-(3-fluorophenyl)-3,4-dihydropyrrolo[1,2-a]pyrazin-2(1H)-yl)-2-((1-(4-methoxy-2,6-dimethylphenylsulfonyl)piperidin-2-yl)methoxy)ethanone] |
| 58 | 98 | COc1cc(C)c(S(=O)(=O)N2CCCCC2COCC(=O)N2CCn3cccc3C2c2cccc(C(F)(F)F)c2)c(C)c1 (centres unmarked) [(30), 2-((1-(4-methoxy-2,6-dimethylphenylsulfonyl)piperidin-2-yl)methoxy)-1-(1-(3-(trifluoromethyl)phenyl)-3,4-dihydropyrrolo[1,2-a]pyrazin-2(1H)-yl)ethanone] |
| 96 | 98 | COc1cccc(C2c3cccn3CCN2C(=O)COCC2CCCCN2S(=O)(=O)c2c(C)cc(OC)cc2C)c1 (centres unmarked) [(31), 2-((1-(4-methoxy-2,6-dimethylphenylsulfonyl)piperidin-2-yl)methoxy)-1-(1-(3-methoxyphenyl)-3,4-dihydropyrrolo[1,2-a]pyrazin-2(1H)-yl)ethanone] |
